Values of other authors in publication PMC10287555, “Camonsertib in DNA damage response-deficient advanced solid tumors: phase 1 trial results” (Nature Medicine, 2023).

Test system: advanced solid tumors
Settings: combination with gemcitabine; cited from earlier work

For `CNCc1ccc(-c2cc(-c3nc(-c4ccc(S(=O)(=O)C(C)C)cc4)cnc3N)on2)cc1` [berzosertib], the “Response rate in TMB-H NSCLC versus patients without elevated TMB” value is given as “higher response rates”.
